Measurements from patent publication US5225436A, “Aryl substituted naphthalene derivatives” (Schering Corporation, priority 1991, dated 1993).
Read-outs that look alike come from different tables or passages of the source.

Key:
Assay type in all cases: cell-based
[1] = target: T1, 5-lipoxygenase (Mus musculus, UniProt P48999); experiment: 5-Lipoxygenase assay (murine mast cell clone MC-9); conditions: MC9, 5 min, MC-9 cell
T1 construct: The IL-3-dependent murine mast cell clone, MC-9, was used to test the effects; endogenous in cells; host or cells: MC-9 (IL-3-dependent murine mast cell clone)
T1 sequence (P48999 1-674): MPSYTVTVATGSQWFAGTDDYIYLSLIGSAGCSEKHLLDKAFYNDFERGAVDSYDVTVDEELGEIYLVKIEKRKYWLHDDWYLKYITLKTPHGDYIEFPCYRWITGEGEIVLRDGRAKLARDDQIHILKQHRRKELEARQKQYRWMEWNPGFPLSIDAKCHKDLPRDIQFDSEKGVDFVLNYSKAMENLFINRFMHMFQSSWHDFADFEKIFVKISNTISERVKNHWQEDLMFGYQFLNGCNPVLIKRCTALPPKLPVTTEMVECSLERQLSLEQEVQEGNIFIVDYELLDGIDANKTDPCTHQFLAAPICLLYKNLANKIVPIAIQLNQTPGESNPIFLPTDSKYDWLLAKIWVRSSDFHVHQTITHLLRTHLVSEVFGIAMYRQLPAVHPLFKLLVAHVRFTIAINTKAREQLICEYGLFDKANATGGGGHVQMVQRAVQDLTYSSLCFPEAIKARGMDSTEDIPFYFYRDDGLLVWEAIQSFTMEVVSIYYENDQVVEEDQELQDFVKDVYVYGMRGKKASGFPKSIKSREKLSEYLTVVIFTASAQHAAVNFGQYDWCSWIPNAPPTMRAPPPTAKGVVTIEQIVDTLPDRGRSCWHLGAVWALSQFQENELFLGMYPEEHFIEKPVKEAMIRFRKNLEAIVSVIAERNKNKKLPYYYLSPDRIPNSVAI
Procedure: The IL-3-dependent murine mast cell clone, MC-9, was used to test the effects of representative compounds of the invention on lipoxygenase activity. The MC-9 cell line was grown in suspension culture (0.4 to 1.2×10^6 cells/ml) in RPMI 1640 medium (Gibco) with 10% fetal bovine serum (Hyclone) and 2-5% conconavalin-A conditioned supernatant (Musch et. al., (1985) Prostagandins 29, 405-4307. Cells were harvested, washed twice by centrifugation, and resuspended in a Ca^++ -free HEPES buffer (25 mM HEPES, 125 mM NaCl, 2.5 mM KCl 0.7 mM MgCl2, 0.5 mM EGTA and 10 mM glucose at pH 7.4).
MC-9 cells (0.39 ml at 7.5×10^6 cells/ml) were preincubated with dimethylsulfoxide (DMSO) vehicle with or without test compound (1 ul) for 4 minutes then incubated for 5 minutes with [^14 C] arachidonic acid (Amersham, 59 Ci/mole) at a 9 uM final concentration, and A23187 (Calbiochem) at a 1 uM final concentration was added in 10 ul of water:ethanol (9:1). The reaction was stopped by addition of methanol (0.4 ml), and cellular debris was removed by centrifugation. Aliquots (250 ul) of the incubations were run on a Waters two pump HPLC system fitted with a Waters C18, 10 u 8×100 mm u-Bondapak radial compression column and C18 "Guard Pak". The column was initially eluted at 3 ml/min with water:methanol:acetic acid (67:33:0.08) containing 1 mM EDTA adjusted to pH 6.0 with ammonium hydroxide (Pump A). At 4 minutes, a linear gradient to reach 100% methanol (Pump B) at 9 minutes was established. Between 13 and 14 minutes, methanol was exchanged for the initial eluting solvent and by 19 minutes the column had been reequilibrated for the next sample. The effluent was analyzed by a continuous flow radioactivity monitor (model ROMONA-D) interfaced with a Hewlett Packard Lab Automation System for quantitation of radioactive products. These were predominantly leukotriene C4 (LTC4) which eluted at 6 minutes, and 5-hydroxyeicosatetraenoic acid (5-HETE) which eluted at 11 minutes (Musch et. al., supra).

[2] = tested on: SRS-A / leukotriene release from antigen-challenged, sensitized guinea pig lung; experiment: Inhibition of SRS-A (leukotriene) release from antigen-challenged, sensitized guinea pig lung; parameters: inhibition: dose or concentration left out as unconfirmed; conditions: Cavia porcellus; for inhibition: Dose 30 μm (μM)
Source text: The anti-allergy method of this invention is identified by tests which measure a compound's inhibition of leukotriene release in sensitized guinea pigs. Sensitized guinea pigs are killed by a blow to the head and the lungs removed and cleaned of visible connective tissue, trachea and large blood vessels. The lungs from individual animals are sliced into fragments approximately 1 mm in thickness using a McIlwain tissue chopper and then washed with oxygenated Tyrode's buffer. Weighed aliquots (approximately 400 mg wet weight) of lung are transferred into vials containing 2 ml of fresh Tyrode's solution (containing 10 mM cysteine) and incubated in the presence or absence of test compound for 12 min at 37° C. The tissues are then challenged with 20 μg ovalbumin/ml (final concentration) and incubated for 15 min. To measure leukotriene release, an aliquot of supernatant fluid is extracted with 4 volumes of 100% ethanol. After removal of the precipitated protein, the clear fluid is dried under a stream of N2 gas. The leukotriene content is measured by a radioimmunoassay using [^3 H]LTC4 and antiserum obtained from New England Nuclear. The cross-reactivity of the antiserum for LTD4 is 55%. Percent inhibition of lekotriene release is calculated by comparing for each lung the release in the presence of the test compound to that in the absence of test compound. Representative compounds of the invention at a relative dose of 50 μM of tissue are found to inhibit leukotriene release in the test procedure as indicated below in Table 1: […]

[3] = target: T2, 5-lipoxygenase (Homo sapiens, UniProt P09917); experiment: 5-Lipoxygenase assay with human neutrophils; conditions: 5 min, Human PMN, dose 15 μm (μM)
T2 construct: Human polymorphonuclear leukocytes (neutrophils) were obtained from normal healthy volunteers; endogenous in cells; host or cells: human blood neutrophils from healthy volunteers
T2 sequence (P09917 1-674): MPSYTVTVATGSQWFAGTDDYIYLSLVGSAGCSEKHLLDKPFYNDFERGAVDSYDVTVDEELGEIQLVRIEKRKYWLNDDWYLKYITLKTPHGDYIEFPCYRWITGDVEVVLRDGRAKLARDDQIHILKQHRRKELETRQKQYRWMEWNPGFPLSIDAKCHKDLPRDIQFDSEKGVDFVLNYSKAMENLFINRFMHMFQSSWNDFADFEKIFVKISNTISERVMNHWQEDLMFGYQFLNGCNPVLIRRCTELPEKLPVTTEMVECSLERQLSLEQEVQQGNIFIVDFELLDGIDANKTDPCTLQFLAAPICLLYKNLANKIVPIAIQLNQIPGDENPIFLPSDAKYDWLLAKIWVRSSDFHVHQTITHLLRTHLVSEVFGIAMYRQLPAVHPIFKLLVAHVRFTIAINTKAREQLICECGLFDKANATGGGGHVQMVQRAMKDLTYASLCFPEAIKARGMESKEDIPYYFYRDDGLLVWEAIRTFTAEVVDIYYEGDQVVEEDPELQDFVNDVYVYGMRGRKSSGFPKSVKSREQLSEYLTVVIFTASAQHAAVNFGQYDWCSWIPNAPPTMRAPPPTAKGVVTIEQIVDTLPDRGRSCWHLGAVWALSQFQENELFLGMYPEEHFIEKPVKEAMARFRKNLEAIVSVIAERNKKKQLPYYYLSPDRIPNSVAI
Procedure: Human polymorphonuclear leukocytes (neutrophils) were obtained from normal healthy volunteers by venipuncture and collected with heparin anticoagulant. Neutrophils were isolated by Dextran/Ficol sedimentation as described (Billah et al., J. Biol. Chem. 260, 6899-6906 (1985)). In brief, 30 ml of blood was mixed with 5 ml of dextran (Sigma) solution and kept at 37° C. for 30 min. The upper white cell-rich layer was removed and 10 ml was layered on 9 ml of Ficol-Paque solution (Pharmacia) and centrifuged at 280 xg for 10 min. at 5° C. The supernatant was removed and the neutrophil pellet was resuspended in HEPES buffer containing 25 mM N-2-hydroxyethylpiperazine-N^1 -2-ethanesulfonic acid HEPES, 125 mM NaCl, 2.5 mM KCl, 0.7 mM MgCl2, […] 10 mM glucose at pH 7.4. The red cells in the suspension were lysed by hypotonic shock. The neutrophils were washed by centrifugation in HEPES buffer two times and finally resuspended at a concentration of 20×10^6 cells/ml in the presence of 1 mM CaCl2.
Neutrophils (0.2 ml of suspension) were preincubated with dimethylsulfoxide (DMSO) vehicle with or without test compound (1 ul) for 4 minutes then incubated for 5 minutes with [^14 C] arachidonic acid (Amersham, 59 Ci/mole) at a 9 uM final concentration, and the calcium ionophore A23187 (Calbiochem) at a 1 uM final concentration. These stimulants were added in 10 ul of water:ethanol (9:1). The reaction was stopped by addition of methanol (0.4 ml), and cellular debris was removed by centrifugation. Aliquots (100 ul) of the incubations were run on a Waters two pump HPLC system fitted with a DuPont Zorbax ODS, 5u, […] Reliance Cartridge column and C18 "Guard Pak". The column was initially eluted at 2 ml/min with 80% of the mixture water:methanol:acetic acid (46:54:0.08) containing 1 mM EDTA adjusted to pH 6.0 with ammonium hydroxide (Pump A) and 20% methanol (Pump B). At 10 minutes, a linear gradient to reach 100% methanol (Pump B) at 27 minutes was established. Between 27 and 28 minutes, methanol was exchanged for the initial eluting solvent and by 35 minutes the column had been reequilibrated for the next sample. The effluent was analyzed by a continuous flow radioactivity monitor (model ROMONA-D) interfaced with a Hewlett Packard Lab Automation System for quantitation of radioactive products. These were predominantly leukotriene B4 (LTB4) which eluted at 7 minutes, and 5-hydroxyeicosatetraenoic acid (5-HETE) which eluted at 20 minutes.

COc1cc(OC)c2c(c1)C(C)(C)C(c1ccc(OC)c(OC)c1)CC2 (stereo not drawn) showed an inhibition at 5 µM ([1]; read-out: % Inhibition 5-HETE) of 35%, an inhibition at 5 µM ([1]; read-out: % Inhibition LTC4) of 53% and an inhibition at 50 µM [2] of 5%.

Work on CC1(C)c2cc(O)cc(O)c2CCC1c1ccc(O)c(O)c1 (stereo not drawn) yielded an inhibition at 5 µM ([1]; read-out: % Inhibition 5-HETE) of 55%, an inhibition at 5 µM ([1]; read-out: % Inhibition LTC4) of 52% and an inhibition at 10 µM [2] of 16%.

In the case of COc1cc(OC)c2c(c1)C(C)(C)C(c1ccc(OC)c(OC)c1)CC2N (stereo not drawn), the inhibition at 15 µM ([3]; read-out: % Inhibition 5-HETE) is reported as 0%, the inhibition at 15 µM ([3]; read-out: % Inhibition LTB) is reported as 0% and the inhibition [2] is reported as 0%.

COc1cc(OC)c2c(c1)C(C)(C)C(c1ccc(OC)c(OC)c1)CC2NC(C)=O (stereo not drawn) gave an inhibition at 15 µM ([3]; read-out: % Inhibition 5-HETE) of 0%, an inhibition at 15 µM ([3]; read-out: % Inhibition LTB) of 4% and an inhibition [2] of 11%.

CON=C1CC(c2ccc(OC)c(OC)c2)C(C)(C)c2cc(OC)ccc21 (stereo not drawn) was tested, and the inhibition at 15 µM ([3]; read-out: % Inhibition 5-HETE) was 74% and the inhibition [2] was 0%.

COc1cc(OC)c2c(c1)C(C)(C)C(c1ccc(OC)c(OC)c1)C(C)C2=NO (stereo not drawn) was tested, and the inhibition at 15 µM ([3]; read-out: % Inhibition 5-HETE) was 31% and the inhibition at 10 µM [2] was 13%.

COc1cc(OC)c2c(c1)C(C)(C)C(c1ccccc1)CC2=O (stereo not drawn) showed an inhibition at 15 µM ([3]; read-out: % Inhibition 5-HETE) of 0%, an inhibition at 15 µM ([3]; read-out: % Inhibition LTB) of 0% and an inhibition at 10 µM [2] of 6%.

For COc1ccc2c(c1)C(C)(C)C(c1ccc(OC)c(OC)c1)CC2=O (stereo not drawn), the inhibition at 15 µM ([3]; read-out: % Inhibition 5-HETE) was 42% and the inhibition [2] was 28%.

Compound COc1cc(OC)c2c(c1)C(C)(C)C(c1ccc(OC)c(OC)c1)C(C=O)C2=O (stereo not drawn) has an inhibition at 15 µM ([3]; read-out: % Inhibition 5-HETE) of 16%, an inhibition at 15 µM ([3]; read-out: % Inhibition LTB) of 0% and an inhibition [2] of 19%.

For COc1cc(OC)c2c(c1)C(C)(C)C(c1ccc(OC)c(OC)c1)CC2(C)O (stereo not drawn), the inhibition at 5 µM ([1]; read-out: % Inhibition 5-HETE) was 0% and the inhibition at 5 µM ([1]; read-out: % Inhibition LTC4) was 8%.

COc1cc(OC)c2c(c1)C(C)(C)C(c1ccc(OC)c(OC)c1)CC2O (stereo not drawn) showed an inhibition at 5 µM ([1]; read-out: % Inhibition 5-HETE) of 5% and an inhibition at 5 µM ([1]; read-out: % Inhibition LTC4) of 32%.

For COc1ccc(C2CC(=O)c3c(cc(OC)c(OC)c3OC)C2(C)C)cc1OC (stereo not drawn) [3-(3,4-dimethoxyphenyl)-3,4-dihydro-6,7,8-trimethoxy-4,4-dimethyl-1(2H)naphthalenone], the inhibition at 15 µM ([3]; read-out: % Inhibition 5-HETE) was 0%, the inhibition at 15 µM ([3]; read-out: % Inhibition LTB) was 0% and the inhibition at 10 µM [2] was 1%.

CC1(C)c2cc(O)cc(O)c2C(=O)CC1c1ccc(O)c(O)c1 (stereo not drawn) [drawing 79 [R3/R4=O; E,G,P,L=OH; J=H; db no]] showed an inhibition at 2 µM ([1]; dose 2 μm, read-out: % Inhibition 5-HETE) of 0% and an inhibition at 50 µM [2] of 67%.

COc1ccc(CC2(Cc3ccc(OC)cc3)CC(C)(C)c3cc(OC)cc(OC)c3C2=O)cc1 [drawing 85 [A=drawing 87; B=drawing 88]] gave an inhibition [2] of 16%.

COc1cc(OC)c2c(c1)C(C)(C)C(c1ccc(OC)c(OC)c1)CC(C)(C)C2=O (stereo not drawn) [drawing 90 [X=O; W=CH3; J=CH3]] showed an inhibition at 15 µM ([3]; read-out: % Inhibition 5-HETE) of 54% and an inhibition [2] of 25%.
